Data set [1] relates to A549. The experiment in a line: Cell culture and cytotoxicity assay (CTG), A549. To be noted: Homo sapiens, A549, exposure 72 hours. It counts as cell-based. Here is the method:
(§1) The assayed compounds each was dissolved in DMSO with a final concentration of 10 mM or 40 mM and stored at −20° C. Tumor cell lines A549 (7,000 cells/well), BT474 (12,000 cells/well), MDA-MB-468 (12,000 cells/well), and HCC1937 (6,000 cells/well) were seeded on 96-well plates. And the cells were pre-incubated at 37° C./5% CO2 for 24 hours. The cells were exposed to different concentrations of the assay compounds (from 400 μM to 782 nM, from 200 μM to 391 nM, from 100 μM to 196 nM, and from 50 μM to 98 nM) for the following time:
(§2) After incubation, 100 μL from each well was discarded and CTG base (Proega, G7571, 50 μL) was added and the mixture was agitated for 2 minutes. The mixtures were stored in a dark room for 10 minutes and the viability was analyzed with Multiskan microplate reader.

Data set [2] deals with MDA-MB-468. The experiment in a line: Cell culture and cytotoxicity assay (CTG), MDA-MB-468. It counts as cell-based, human. As for the experimental part: as §1, §2
Data set [3] concerns MDA-MB-468. The experiment in a line: Cytotoxicity assay by the CTG method, MDA-MB-468. It counts as cell-based. To be noted: Homo sapiens, MDA-MB-468, Breast cancer, 72 h. As for the experimental part:
(§3) The corresponding cells were harvested from flask into cell culture medium and the cell number were counted. The cells were diluted with culture medium to the desired density and 40 μL of cell suspension was added into each well of 384-well cell culture plate as designated. The plates were covered with lid and placed in room temperature for 30 minutes without shaking and then were transferred plates into 37° C. 5% CO2 incubator overnight for cell attachment.
(§4) Compound preparation and treatment: Test compounds were received or dissolved at 30 mM stock solution and control compound Staurosporine was stored as 10 mM and 1 mM concentration. 45 uL of stock solution was transferred to a 384 pp-plate. 3 fold, 10-point dilution were performed via transferring 15 uL compound into 30 μL DMSO by using TECAN (EVO200) liquid handler. The plates were spun at room temperature at 1,000 RPM for 1 minute and shaken at a plate shaker for 2 minutes. […]
(§5) The plate from incubators were placed and equilibrated at room temperature for 15 minutes. […] 40 μL of CellTiter-Glo reagent were transferred into each well to be detected (at 1:1 to culture medium). Then the plates were placed at room temperature for 30 min followed by reading on EnSpire.
(§6) The inhibition activity was calculated following the formula below: […]
(§7) The IC50 were calculated by fitting the Curve using Xlfit (v5.3.1.3): […]

Another data set deals with T-47D. The experiment in a line: Cytotoxicity assay by the CTG method, T-47D. It counts as cell-based. The note with it: Homo sapiens, T47D, Breast cancer, 72 h. Here is the method:
as §3, §4, §5, §6, §7

Another data set has as its system MDA-MB-453. The experiment in a line: Cytotoxicity assay by the CTG method, MDA-MB-453. It is filed as cell-based. To be noted: Homo sapiens, MDA-MB-453, Breast cancer, 72 h. As for the experimental part: as §3, §4, §5, §6, §7
The test system of another data set is 786-O. The experiment in a line: Cytotoxicity assay by the CTG method, 786-O. It is filed as cell-based. To be noted: Homo sapiens, 786-0, Kidney cancer, 72 h. Here is the method: as §3, §4, §5, §6, §7
In a further data set the test system is Hep3B. The experiment in a line: Cytotoxicity assay by the CTG method, Hep3B. It is filed as cell-based. The note with it: Homo sapiens, Liver cancer, 72 h. As for the experimental part: as §3, §4, §5, §6, §7
Data set [4] relates to A549. The experiment in a line: Cytotoxicity assay by the CTG method, A549. It counts as cell-based. To be noted: Homo sapiens, A549, Lung cancer, 72 h. As for the experimental part: as §3, §4, §5, §6, §7
A further data set has as its system Calu-6. The experiment in a line: Cytotoxicity assay by the CTG method, Calu-6. It is filed as cell-based. To be noted: Homo sapiens, Calu-6, Lung cancer, 72 h. As for the experimental part:
as §3, §4, §5, §6, §7

The next data set has as its system WM-266-4. The experiment in a line: Cytotoxicity assay by the CTG method, WM-266-4. It counts as cell-based. The note with it: Homo sapiens, WM-266-4, Melanoma, 72 h. As for the experimental part: as §3, §4, §5, §6, §7
A further data set relates to SK-OV-3. The experiment in a line: Cytotoxicity assay by the CTG method, SK-OV-3. It is filed as cell-based. To be noted: Homo sapiens, SK-OV-3, Ovarian cancer, 72 h. As for the experimental part: as §3, §4, §5, §6, §7
The next data set relates to U87MG. The experiment in a line: Cytotoxicity assay by the CTG method, U87MG. It is filed as cell-based. The note with it: Homo sapiens, U-87 MG, Glioblastoma, 72 h. As for the experimental part:
as §3, §4, §5, §6, §7

The subject of another data set is MDA-MB-468 cell line. The experiment in a line: Anti-tumor activity against MDA-MB-468 cell line (CCK-8 test). It counts as cell-based. To be noted: Homo sapiens, MDA-MB-468, 72 h. As for the experimental part:
A cryo tube was removed from liquid nitrogen. As quickly as possible, the cells were thawed by placing the vial in a 37° C. water bath and gently shaking the vials. The cells were transferred to medium tube, which containing 5 mL medium, and were centrifuged at 1000 rpm for 6 min. The supernatant containing dead cells and cell debris was discarded. 1 mL of pre-warmed medium with 10% FBS was add and the solution was re-suspended. The plate was placed in 37° C. and 5% CO2 incubator. The medium was changed next day.
Cells in logarithmic growth stage were taken and culture medium was discarded. 1 mL 0.25% trypsin solution was added for twice. The trypsin solution was removed and the 0.5 ml 0.25% trypsin solution was added to the cell flask. The plate was placed in 37° C. and 5% CO2 incubator for a few minutes until the cells recovered. 1 mL medium was added to stop digestion. The liquid was transferred by pipette for experiment.
the cells were suspended and the medium was discarded. 1 mL 0.25% trypsin solution was added for twice and the trypsin digestion was centrifuged. The cells were suspended with the culture medium, count and adjusted to the appropriate concentration.
The cell suspension was added to the 96-well plate with a volume of 100 uL per well, as shown in Tab. 5, and was placed in 37° C., 5% CO2 incubator overnight.
Preparation of Compounds Working Solution.
The test compounds were dissolved in DMSO at 10 mM with sterile filter (0.22 um, nelon, JET). After filtering, the solution were continuously diluted by three times with DMSO. A total of six concentration were prepared, as shown below.
6 uL compound solution was added to 594 uL medium and the solution was added to 96-well plate as shown and cultured for 72 h in CO2 incubator.
A CCK-8 solution was prepared according to the instructions and the 96-well plate was taken out and the original medium discarded. 100 uL cck-8 solution was added to each well in the 96-well plate. Photoabsorption data were read by TECAN enzyme marker after a period of time.
IC (%)=[Ac-As]/[Ac-Ab]*100% • As: Experimental well (containing culture medium, cell, CCK-8 and compound); • Ac: Controlled well (containing culture medium, cell and CCK-8); • Ab: Blank well (Only containing medium and CCK-8).
(In general: Formazan colour is commonly taken as a measure of viable cells.)

Data set [5] can be described thus: In vivo mouse model, MDA-MB-453, mice weights. To be noted: MDA-MB-453 mouse model. From the text:
MDA-MB-453 cells (human breast cancer) were also studied in a mouse model. […] FIG. 7.

As a reminder, the IC50 is the midpoint of a concentration-inhibition curve. A higher IC50 goes with weaker potency. `Cc1ccc(S(=O)(=O)Nc2nc3ccccc3nc2Nc2ccc3nsnc3c2)cc1F` [Compound 4f, N-[3-(benzo[1,2,5]thiadiazol-5-ylamino)-quinoxalin-2-yl]-3-fluoro-4-methyl-benzenesulfonamide]: the IC50 with A549 [1] is 25000 to 50000 nM; in the data set on MDA-MB-468 [2] (Homo sapiens, MDA-MB-468, exposure 72 hours, CTG) it was 781 to 1560 nM; with MDA-MB-468 [3], 2.49 µM; with T-47D it was 5.74 µM; in the data set on MDA-MB-453, 1.5 µM; in the data set with 786-O, 5.74 µM. The IC50 in the data set on Hep3B worked out at 3.97 µM; in the data set with A549 [4], 8.33 µM; in the data set on Calu-6, 4.89 µM; in the data set on WM-266-4, 9.1 µM; with SK-OV-3, 9.37 µM; with U87MG it was 18 µM. For the same compound, in the data set on MDA-MB-468 cell line, the IC50 amounted to 0.912 µM. For the same compound, the “anticancer activity compared with known compounds (FIG. 1)” value with MDA-MB-468 [2] (MDA-MB-468 cytotoxicity, versus Ref. 1, Ref. 3, XL147-A, BEZ235) was “much better anticancer activity than any of the known compounds”. Moreover, the weight changes result is “no difference in weight changes” in data set [5] (FIG. 7, 50 mg/Kg) and “no difference in weight changes” in [5] (FIG. 7, 100 mg/Kg).

These data come from patent US20200223839A1, “FLUORO-CONTAINING COMPOUNDS, USE AND PREPARATION THEREOF” (JIANGSU YINGKEBEITA YIYAOKEJI CO. LTD, priority 2017, published 2020).
